Experimental data as given in ChEMBL document CHEMBL5131492, “Harringtonine Ester Derivatives with Enhanced Antiproliferative Activities against HL-60 and HeLa Cells” (J Nat Prod, 2022).

How the values were obtained:
[1] = system: HL-60; assay: Antiproliferative activity against human HL-60 cells assessed as inhibition of cell growth measured after 68 hrs by MTS assay; format: functional, cell-based; settings: HL-60, 68 h
[2] = system: HeLa; assay: Antiproliferative activity against human HeLa cells assessed as inhibition of cell growth measured after 68 hrs by MTS assay; format: functional, cell-based

COC1=C[C@]23CCCN2CCc2cc4c(cc2[C@@H]3[C@@H]1OC(=O)[C@@](O)(CCC(C)(C)O)CC(=O)O)OCO4
IC50 [1]: > 100000 nM
IC50 [2]: > 100000 nM

COC1=C[C@]23CCCN2CCc2cc4c(cc2[C@@H]3[C@@H]1OC(=O)[C@@](O)(CCC(C)(C)O)CC(=O)OCC(C)C)OCO4
IC50 [1]: 119 nM
IC50 [2]: 23800 nM

CCCCCOC(=O)C[C@](O)(CCC(C)(C)O)C(=O)O[C@@H]1C(OC)=C[C@]23CCCN2CCc2cc4c(cc2[C@H]13)OCO4
IC50 [1]: 22.7 nM
IC50 [2]: 6000 nM

CCCCCCCCOC(=O)C[C@](O)(CCC(C)(C)O)C(=O)O[C@@H]1C(OC)=C[C@]23CCCN2CCc2cc4c(cc2[C@H]13)OCO4
IC50 [1]: 11.8 nM
IC50 [2]: 2000 nM

COC1=C[C@]23CCCN2CCc2cc4c(cc2[C@@H]3[C@@H]1OC(=O)[C@@](O)(CCC(C)(C)O)CC(=O)OC(C)C)OCO4
IC50 [1]: 583 nM
IC50 [2]: 60600 nM

CCCCOC(=O)C[C@](O)(CCC(C)(C)O)C(=O)O[C@@H]1C(OC)=C[C@]23CCCN2CCc2cc4c(cc2[C@H]13)OCO4
IC50 [1]: 42.4 nM
IC50 [2]: 10800 nM

CCCCCCCOC(=O)C[C@](O)(CCC(C)(C)O)C(=O)O[C@@H]1C(OC)=C[C@]23CCCN2CCc2cc4c(cc2[C@H]13)OCO4
IC50 [1]: 9.4 nM
IC50 [2]: 400 nM

CCOC(=O)C[C@](O)(CCC(C)(C)O)C(=O)O[C@@H]1C(OC)=C[C@]23CCCN2CCc2cc4c(cc2[C@H]13)OCO4
IC50 [1]: 186 nM
IC50 [2]: 24200 nM

CCCCCCOC(=O)C[C@](O)(CCC(C)(C)O)C(=O)O[C@@H]1C(OC)=C[C@]23CCCN2CCc2cc4c(cc2[C@H]13)OCO4
IC50 [1]: 9.6 nM
IC50 [2]: 1900 nM

COC1=C[C@]23CCCN2CCc2cc4c(cc2[C@@H]3[C@@H]1OC(=O)[C@@](O)(CCC(C)(C)O)CC(=O)OC(C)(C)C)OCO4
IC50 [1]: 6200 nM
IC50 [2]: > 100000 nM

CCCOC(=O)C[C@](O)(CCC(C)(C)O)C(=O)O[C@@H]1C(OC)=C[C@]23CCCN2CCc2cc4c(cc2[C@H]13)OCO4
IC50 [1]: 104 nM
IC50 [2]: 15800 nM

CCC(C)OC(=O)C[C@](O)(CCC(C)(C)O)C(=O)O[C@@H]1C(OC)=C[C@]23CCCN2CCc2cc4c(cc2[C@H]13)OCO4 (mixture of isomers)
IC50 [1]: 499 nM
IC50 [2]: 97900 nM

COC(=O)C[C@](O)(CCC(C)(C)O)C(=O)O[C@@H]1C(OC)=C[C@]23CCCN2CCc2cc4c(cc2[C@H]13)OCO4 [HARRINGTONINE]
IC50 [1]: 50.5 nM
IC50 [2]: 4000 nM

COC(=O)C[C@](O)(CCCC(C)(C)O)C(=O)O[C@@H]1C(OC)=C[C@]23CCCN2CCc2cc4c(cc2[C@H]13)OCO4 [OMACETAXINE MEPESUCCINATE]
IC50 [2]: 1700 nM
